Measured values reported in patent publication US6737383B1, “Herbicidal oxadiazolidines” (priority 1999, dated 2004).

Assays:
[1] = system: rice; test: Test B flood test rice; format: in vivo, Oryza sativa
How it was run: (§1)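 Read-out is a visual response score from 0 (no effect) to 10 (complete control), assigned by comparison with untreated controls. Treatment was applied at the 2-leaf stage, and plants stayed in the greenhouse for twelve to sixteen days before scoring.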

[2] = system: sugar beet; test: Test B pre/postemergence sugar beet; format: in vivo, Beta vulgaris
How it was run: (§2)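 Test chemicals in a non-phytotoxic solvent mixture with surfactant were sprayed preemergence onto planted seeds and postemergence onto plants 2 to 18 cm tall (1- to 4-leaf stage). After twelve to sixteen days in a greenhouse, injury was visually rated against untreated controls from 0 (no effect) to 10 (complete control).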

[3] = system: cocklebur; test: Test B pre/postemergence cocklebur; format: in vivo, Xanthium strumarium
How it was run: as §2

[4] = system: duck salad; test: Test B flood test duck salad; format: in vivo, Heteranthera limosa
How it was run: as §1

[5] = system: crabgrass; test: Test B pre/postemergence crabgrass; format: in vivo, Digitaria sanguinalis
How it was run: as §2

[6] = system: bamyardgrass; test: Test B flood test barnyardgrass; format: in vivo, Echinochloa crus-galli
How it was run: as §1

[7] = system: bedstraw; test: Test B pre/postemergence bedstraw; format: in vivo, Galium aparine; conditions: Postemergence
How it was run: as §2

[8] = system: wild oat; test: Test B pre/postemergence wild oat; format: in vivo, Avena fatua
How it was run: as §2

[9] = system: pigweed; test: Test B pre/postemergence pigweed; format: in vivo, Amaranthus retroflexus
How it was run: as §2

[10] = system: wheat; test: Test B pre/postemergence wheat; format: in vivo, Triticum aestivum
How it was run: as §2

[11] = system: smallflower flatsedge; test: Test B flood test smallflower flatsedge; format: in vivo, Cyperus difformis
How it was run: as §1

[12] = system: purple nutsedge; test: Test B pre/postemergence purple nutsedge; format: in vivo, Cyperus rotundus
How it was run: as §2

[13] = system: giant foxtail; test: Test B pre/postemergence giant foxtail; format: in vivo, Setaria faberii
How it was run: as §2

[14] = system: soybean; test: Test B pre/postemergence soybean; format: in vivo, Glycine max
How it was run: as §2

[15] = system: velvetleaf; test: Test B pre/postemergence velvetleaf; format: in vivo, Abutilon theophrasti
How it was run: as §2

[16] = system: surinam grass; test: Test B pre/postemergence surinam grass; format: in vivo, Brachiaria decumbens
How it was run: as §2

[17] = system: blackgrass; test: Test B pre/postemergence blackgrass; format: in vivo, Alopecurus myosuroides
How it was run: as §2

[18] = system: corn; test: Test B pre/postemergence corn; format: in vivo, Zea mays
How it was run: as §2

[19] = system: morningglory; test: Test B pre/postemergence morningglory; format: in vivo, Ipomoea hederacea
How it was run: as §2

[20] = system: rape; test: Test B pre/postemergence rape; format: in vivo, Brassica napus
How it was run: as §2

[21] = Rate 62 g/ha, flood test species, Pre-emergence, visual evaluation after twelve to sixteen days
[22] = Rate 125 g/ha, under heading Pre-emergence, flood test species, visual evaluation after twelve to sixteen days
[23] = Rate 250 g/ha, Pre-emergence, flood-test species, scale 0 to 10, 0 is no effect, 10 is complete control
[24] = Rate 500 g/ha, Pre-emergence, flood test species, scale 0 to 10 (0 no effect, 10 complete control)
[25] = Postemergence, Rate 250 g/ha, scale 0 to 10, 0 is no effect, 10 is complete control
[26] = Postemergence, Rate 500 g/ha, scale of 0 to 10 where 0 is no effect and 10 is complete control
[27] = Preemergence, Rate 62 g/ha, scale 0 to 10 (0 no effect, 10 complete control)
[28] = Preemergence, Rate 125 g/ha, scale of 0 to 10 where 0 is no effect and 10 is complete control
[29] = Preemergence, Rate 250 g/ha, scale 0 to 10, 0 is no effect, 10 is complete control
[30] = Preemergence, Rate 500 g/ha, scale 0 to 10, 0 is no effect, 10 is complete control
[31] = Postemergence, Rate 125 g/ha, scale 0 to 10, 0 is no effect, 10 is complete control
[32] = Rate 62 g/ha, Postemergence, scale of 0 to 10 where 0 is no effect and 10 is complete control
[33] = Preemergence, Rate 250 g/ha, scale of 0 to 10 where 0 is no effect and 10 is complete control

## CC(C)N(C(=O)n1oc(=O)n(C(C)CCl)c1=O)c1ccccc1 (centres unmarked) [Compound 411]
[1]; [21]
  Plant response rating, Rice (0 to 10 scale, 0 is no effect, 10 is complete control): 0
[1]; [22]
  Rice plant response rating (0 to 10 scale, 0 is no effect, 10 is complete control): 0
[1]; [23]
  Rice plant response rating: 0
[1]; [24]
  Rice plant response rating: 0
[2]; [25]
  Plant response rating, Sugarbeets: 4
[2]; [26]
  Sugarbeets plant response rating: 7
[2]; [27]
  Plant response rating, Sugarbeets: 5
[2]; [28]
  Plant response rating, Sugarbeets: 8
[2]; [29]
  Sugarbeets plant response rating: 8
[2]; [30]
  Sugarbeets plant response rating: 8
[3]; [31]
  Plant response rating, Cocklebur: 1
[3]; [25]
  Plant response rating, Cocklebur: 3
[3]; [26]
  Cocklebur plant response rating: 3
[3]; [27]
  Plant response rating, Cocklebur: 0
[3]; [28]
  Plant response rating, Cocklebur: 0
[3]; [29]
  Cocklebur plant response rating: 0
[3]; [30]
  Cocklebur plant response rating: 0
[3]; [32]
  Cocklebur plant response rating: 1
[4]; [21]
  Plant response rating, Ducksalad (0 to 10 scale, 0 is no effect, 10 is complete control): 0
[4]; [22]
  Ducksalad plant response rating (0 to 10 scale, 0 is no effect, 10 is complete control): 0
[4]; [23]
  Ducksalad plant response rating: 2
[4]; [24]
  Ducksalad plant response rating: 2
[5]; [31]
  Plant response rating, Crabgrass: 4
[5]; [25]
  Plant response rating, Crabgrass: 8
[5]; [26]
  Crabgrass plant response rating: 8
[5]; [27]
  Plant response rating, Crabgrass: 9
[5]; [28]
  Plant response rating, Crabgrass: 10
[5]; [29]
  Crabgrass plant response rating: 10
[5]; [30]
  Crabgrass plant response rating: 10
[5]; [32]
  Crabgrass plant response rating: 4
[6]; [21]
  Plant response rating, Barnyardgrass (0 to 10 scale, 0 is no effect, 10 is complete control): 0
[6]; [22]
  Barnyardgrass plant response rating (0 to 10 scale, 0 is no effect, 10 is complete control): 8
[6]; [23]
  Barnyardgrass plant response rating: 9
[6]; [24]
  Barnyardgrass plant response rating: 9
[7]; Rate 250 g/ha, scale 0 to 10, 0 is no effect, 10 is complete control
  Plant response rating, Bedstraw: 7
[7]; Rate 500 g/ha, scale of 0 to 10 where 0 is no effect and 10 is complete control
  Bedstraw plant response rating: 8
[8]; [26]
  Wild oats plant response rating: 9
[8]; [27]
  Plant response rating, Wild oats: 0
[8]; [28]
  Plant response rating, Wild oats: 5
[8]; [29]
  Wild oats plant response rating: 8
[8]; [30]
  Wild oats plant response rating: 10
[9]; [25]
  Plant response rating, Redroot pigweed: 7
[9]; [26]
  Redroot pigweed plant response rating: 9
[9]; [27]
  Plant response rating, Redroot pigweed: 3
[9]; [28]
  Plant response rating, Redroot pigweed: 8
[9]; [29]
  Redroot pigweed plant response rating: 10
[9]; [30]
  Redroot pigweed plant response rating: 10
[10]; [26]
  Wheat plant response rating: 8
[10]; [27]
  Plant response rating, Wheat: 0
[10]; [28]
  Plant response rating, Wheat: 4
[10]; [29]
  Wheat plant response rating: 7
[10]; [30]
  Wheat plant response rating: 10
[11]; [21]
  Plant response rating, S. Flatsedge (0 to 10 scale, 0 is no effect, 10 is complete control): 0
[11]; [22]
  S. Flatsedge plant response rating (0 to 10 scale, 0 is no effect, 10 is complete control): 0
[11]; [23]
  S. Flatsedge plant response rating: 9
[11]; [24]
  S. Flatsedge plant response rating: 9
[12]; [25]
  Plant response rating, Nutsedge: 0
[12]; [26]
  Nutsedge plant response rating: 0
[12]; [27]
  Plant response rating, Nutsedge: 0
[12]; [28]
  Plant response rating, Nutsedge: 0
[12]; [29]
  Nutsedge plant response rating: 0
[12]; [30]
  Nutsedge plant response rating: 2
[13]; [31]
  Plant response rating, Giant foxtail: 9
[13]; [25]
  Plant response rating, Giant foxtail: 9
[13]; [26]
  Giant foxtail plant response rating: 9
[13]; [27]
  Plant response rating, Giant foxtail: 10
[13]; [28]
  Plant response rating, Giant foxtail: 10
[13]; [29]
  Giant foxtail plant response rating: 10
[13]; [30]
  Giant foxtail plant response rating: 10
[13]; [32]
  Giant foxtail plant response rating: 6
[14]; [25]
  Plant response rating, Soybean: 5
[14]; [26]
  Soybean plant response rating: 7
[14]; [27]
  Plant response rating, Soybean: 0
[14]; [28]
  Plant response rating, Soybean: 0
[14]; [29]
  Soybean plant response rating: 0
[14]; [30]
  Soybean plant response rating: 1
[15]; [25]
  Plant response rating, Velvetleaf: 4
[15]; [26]
  Velvetleaf plant response rating: 6
[15]; [27]
  Plant response rating, Velvetleaf: 2
[15]; [28]
  Plant response rating, Velvetleaf: 5
[15]; [29]
  Velvetleaf plant response rating: 6
[15]; [30]
  Velvetleaf plant response rating: 8
[16]; [31]
  Plant response rating, B. signalgrass: 3
[16]; [25]
  Plant response rating, B. signalgrass: 5
[16]; [26]
  B. signalgrass plant response rating: 9
[16]; [27]
  Plant response rating, B. signalgrass: 0
[16]; [28]
  Plant response rating, B. signalgrass: 3
[16]; [33]
  B. signalgrass plant response rating: 7
[16]; Preemergence, Rate 500 g/ha, scale of 0 to 10 where 0 is no effect and 10 is complete control
  B. signalgrass plant response rating: 10
[16]; [32]
  B. signalgrass plant response rating: 0
[17]; [25]
  Plant response rating, Blackgrass: 9
[17]; [26]
  Blackgrass plant response rating: 9
[17]; [27]
  Plant response rating, Blackgrass: 6
[17]; [28]
  Plant response rating, Blackgrass: 7
[17]; [33]
  Blackgrass plant response rating: 9
[17]; [30]
  Blackgrass plant response rating: 10
[18]; [31]
  Plant response rating, Corn: 0
[18]; [25]
  Plant response rating, Corn: 0
[18]; [26]
  Corn plant response rating: 4
[18]; [27]
  Plant response rating, Corn: 0
[18]; [28]
  Plant response rating, Corn: 2
[18]; [29]
  Corn plant response rating: 8
[18]; [30]
  Corn plant response rating: 9
[18]; [32]
  Corn plant response rating: 0
[19]; [25]
  Plant response rating, Morningglory: 6
[19]; [26]
  Morningglory plant response rating: 6
[19]; [27]
  Plant response rating, Morningglory: 0
[19]; [28]
  Plant response rating, Morningglory: 1
[19]; [29]
  Morningglory plant response rating: 2
[19]; [30]
  Morningglory plant response rating: 4
[20]; [25]
  Plant response rating, Rape: 7
[20]; [26]
  Rape plant response rating: 8
[20]; [27]
  Plant response rating, Rape: 2
[20]; [28]
  Plant response rating, Rape: 8
[20]; [29]
  Rape plant response rating: 9
[20]; [30]
  Rape plant response rating: 10
